Measurements taken from ChEMBL document CHEMBL1136128, “3-(2-Benzyloxyphenyl)isoxazoles and isoxazolines: synthesis and evaluation as CFTR activators” (Bioorg Med Chem Lett, 2003).

Molecular target: Cystic fibrosis transmembrane conductance regulator (Rattus norvegicus) (UniProt P34158)
Experiment: Percent activity against CFTR (cystic fibrosis transmembrane conductance regulator) in rat relative to genistein(50 uM)

Cystic fibrosis transmembrane conductance regulator (Rattus norvegicus), sequence (P34158 whole entry): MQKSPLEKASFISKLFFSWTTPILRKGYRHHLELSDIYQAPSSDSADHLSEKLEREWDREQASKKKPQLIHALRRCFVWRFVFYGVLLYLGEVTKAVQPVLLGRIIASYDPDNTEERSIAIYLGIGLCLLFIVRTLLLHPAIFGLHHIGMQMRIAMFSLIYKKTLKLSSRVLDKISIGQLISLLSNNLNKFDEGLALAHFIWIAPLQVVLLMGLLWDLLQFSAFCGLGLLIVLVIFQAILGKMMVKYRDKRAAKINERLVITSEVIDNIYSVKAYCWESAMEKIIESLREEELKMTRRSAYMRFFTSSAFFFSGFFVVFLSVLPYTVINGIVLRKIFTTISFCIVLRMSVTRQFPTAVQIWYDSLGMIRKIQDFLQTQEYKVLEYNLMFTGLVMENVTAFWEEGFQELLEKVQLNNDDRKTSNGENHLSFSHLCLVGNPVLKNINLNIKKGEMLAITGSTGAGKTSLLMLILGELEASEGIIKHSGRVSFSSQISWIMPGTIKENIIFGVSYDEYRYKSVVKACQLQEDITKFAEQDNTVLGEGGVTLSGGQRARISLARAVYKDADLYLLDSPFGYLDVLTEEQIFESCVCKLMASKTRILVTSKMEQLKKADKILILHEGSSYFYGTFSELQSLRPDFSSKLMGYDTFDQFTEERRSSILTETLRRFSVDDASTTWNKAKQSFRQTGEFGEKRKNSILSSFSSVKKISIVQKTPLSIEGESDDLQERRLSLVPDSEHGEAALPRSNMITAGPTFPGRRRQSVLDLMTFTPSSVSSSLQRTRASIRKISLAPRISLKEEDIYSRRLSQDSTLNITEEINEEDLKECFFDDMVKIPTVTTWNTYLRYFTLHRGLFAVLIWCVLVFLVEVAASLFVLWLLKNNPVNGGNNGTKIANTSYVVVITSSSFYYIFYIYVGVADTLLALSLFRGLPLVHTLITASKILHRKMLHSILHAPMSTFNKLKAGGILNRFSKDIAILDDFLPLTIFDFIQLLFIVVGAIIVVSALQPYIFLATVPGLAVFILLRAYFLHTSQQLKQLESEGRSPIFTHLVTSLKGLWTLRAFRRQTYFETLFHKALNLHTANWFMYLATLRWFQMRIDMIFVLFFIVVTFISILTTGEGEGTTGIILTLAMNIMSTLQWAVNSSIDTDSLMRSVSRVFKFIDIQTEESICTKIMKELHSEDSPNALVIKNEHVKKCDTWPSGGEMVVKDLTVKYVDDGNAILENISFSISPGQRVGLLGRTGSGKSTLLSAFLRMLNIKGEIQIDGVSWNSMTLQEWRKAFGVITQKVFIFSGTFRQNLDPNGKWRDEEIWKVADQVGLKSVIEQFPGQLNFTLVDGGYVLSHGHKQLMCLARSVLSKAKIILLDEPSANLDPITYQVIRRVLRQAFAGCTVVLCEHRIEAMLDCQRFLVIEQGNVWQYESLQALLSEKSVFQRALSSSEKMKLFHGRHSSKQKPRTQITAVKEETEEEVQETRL

| Activity [%] | Structure (SMILES) |
| --- | --- |
| 55 | ClCc1cc(-c2ccccc2OCc2ccccc2)no1 |

Molecular target: Cystic fibrosis transmembrane conductance regulator (Rattus norvegicus) (UniProt P34158)
Experiment: Percent activity against CFTR (cystic fibrosis transmembrane conductance regulator) in rat relative to UCCF-152(50 uM)

| Structure (SMILES) | Activity [%] |
| --- | --- |
| COC(=O)C1CC(c2ccccc2OCc2ccc(OC)cc2)=NO1 (configuration not stated) | 64 |
| COc1ccc(COc2ccccc2-c2cc(CCl)on2)cc1 | 72 |
| COc1ccc(COc2cccc(-c3cc(CCl)on3)c2)cc1 | 2 |
| COc1cccc(COc2ccccc2C2=NOC(CCl)C2)c1 (configuration not stated) | 58 |
| COc1ccc(COc2ccc(Br)cc2-c2cc(CCl)on2)cc1 | 9 |
| CCCCc1cc(-c2ccccc2OCc2ccc(OC)cc2)no1 | 8 |
| COc1ccc(COc2ccc(Br)cc2-c2cc(CO)on2)cc1 | 30 |
| COc1ccc(COc2ccccc2C2=NOC(CCl)C2)cc1 (configuration not stated) | 61 |
| COC(=O)C1CC(c2cc(Br)ccc2OCc2ccc(OC)cc2)=NO1 (configuration not stated) | 41 |
| COc1ccc(COc2ccccc2-c2cc(CO)on2)cc1 | 45 |
| COC(=O)c1cc(-c2ccccc2OCc2ccc(Br)cc2)no1 | 32 |

Second part, the compound after the results:

| Activity [%] | Structure (SMILES) |
| --- | --- |
| 3 | COc1ccc(COc2ccc(-c3cc(CCl)on3)cc2)cc1 |
| 8 | COc1ccccc1-c1cc(CCl)on1 |
| 39 | OCc1cc(-c2ccccc2OCc2ccc(Br)cc2)no1 |
| 21 | COC(=O)c1onc(-c2ccccc2OCc2ccc(Br)cc2)c1C(=O)OC |
| 25 | ClCc1cc(-c2ccccc2OCc2ccc(Br)cc2)no1 |
| 31 | COc1cccc(COc2ccccc2-c2cc(CCO)on2)c1 |
| 63 | COc1ccc(COc2ccccc2C2=NOC(CO)C2)cc1 (configuration not stated) |
| 106 | OCCc1cc(-c2ccccc2OCc2ccc(Br)cc2)no1 |
| 48 | COC(=O)C1CC(c2ccccc2OCc2ccc(Br)cc2)=NO1 (configuration not stated) |
| 29 | COc1cccc(COc2ccccc2C2=NOC(CO)C2)c1 (configuration not stated) |
| 46 | COc1ccc(COc2ccccc2-c2cc(CCO)on2)cc1 |
| 10 | COCc1cc(-c2ccccc2OCc2ccc(Br)cc2)no1 |
| 22 | COc1ccccc1-c1cc(CO)on1 |
| 29 | COC(=O)C1CC(c2ccccc2OCc2cccc(OC)c2)=NO1 (configuration not stated) |
| 45 | COc1cccc(COc2ccccc2-c2cc(CO)on2)c1 |
